In ChEMBL document CHEMBL1201862, “PubChem BioAssay data set” (2004):
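48-hour exposure; five concentrations; linearly interpolated endpoints. GI50 marks 50% less growth.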 Activity calls are given as the source filed them. Rule as the data show it: active = GI50 up to about 1.1 µM and inactive = higher.

What was measured:
Experiment in all cases: NCI-60 cell line screen, 48 h
[1] = test system: RXF 393
[2] = test system: OVCAR-3
[3] = test system: RPMI-8226
[4] = test system: OVCAR-4
[5] = test system: HT-29
[6] = test system: MOLT-4
[7] = test system: LXFL 529
[8] = test system: KM12
[9] = test system: UACC-62
[10] = test system: SW-620
[11] = test system: SNB-78
[12] = test system: SF-268
[13] = test system: CAKI-1
[14] = test system: M19-MEL
[15] = test system: HOP-18
[16] = test system: DLD-1
[17] = test system: KM-20L2
[18] = test system: HOP-62
[19] = test system: U-251
[20] = test system: COLO 205
[21] = test system: ACHN
[22] = test system: NCI-H23
[23] = test system: SN12C
[24] = test system: HCC 2998
[25] = test system: CCRF-CEM
[26] = test system: IGROV-1
[27] = test system: SK-MEL-5
[28] = test system: Malme-3M
[29] = test system: LOX IMVI
[30] = test system: TK-10
[31] = test system: DMS-114
[32] = test system: 786-0
[33] = test system: OVCAR-8
[34] = test system: UACC-257
[35] = test system: A498
[36] = test system: HL-60
[37] = test system: OVCAR-5
[38] = test system: SNB-19
[39] = test system: SF-539
[40] = test system: EKVX
[41] = test system: HCT-116
[42] = test system: SK-MEL-2
[43] = test system: NCI-H460
[44] = test system: SNB-75
[45] = test system: DMS-273
[46] = test system: A549
[47] = test system: UO-31
[48] = test system: K562
[49] = test system: SF-295
[50] = test system: HOP-92
[51] = test system: HCT-15
[52] = test system: XF498
[53] = test system: M14
[54] = test system: SK-OV-3
[55] = test system: NCI-H226
[56] = test system: SR
[57] = test system: NCI-H522
[58] = test system: SK-MEL-28

In the case of `COC(=O)/C(C)=C/[N+](=O)[O-]`, the GI50 [1] is reported as 21.2 µM (inactive), the GI50 [2] is reported as 16 µM (inactive) and the GI50 [3] is reported as 2.77 µM (inactive). The GI50 [4] was 17.5 µM (inactive), the GI50 [5] was 20.6 µM (inactive) and the GI50 [6] was 11 µM (inactive). The GI50 [7] was 14 µM (inactive), the GI50 [8] was 18.5 µM (inactive) and the GI50 [9] was 17.9 µM (inactive). For the same compound, the GI50 [10] was 5.38 µM (inactive), the GI50 [11] was 21.1 µM (inactive) and the GI50 [12] was 23.1 µM (inactive). For the same compound, the GI50 [13] was 2.57 µM (inactive), the GI50 [14] was 17.4 µM (inactive) and the GI50 [15] was 18 µM (inactive). For the same compound, the GI50 [16] was 1.93 µM (inactive), the GI50 [17] was 25 µM (inactive) and the GI50 [18] was 25.4 µM (inactive). The GI50 [19] was 18.5 µM (inactive), the GI50 [20] was 4.67 µM (inactive) and the GI50 [21] was 19.5 µM (inactive). For the same compound, the GI50 [22] was 19.8 µM (inactive), the GI50 [23] was 20.7 µM (inactive) and the GI50 [24] was 17.3 µM (inactive). For the same compound, the GI50 [25] was 2.59 µM (inactive), the GI50 [26] was 20.9 µM (inactive) and the GI50 [27] was 23 µM (inactive). For the same compound, the GI50 [28] was 17.3 µM (inactive), the GI50 [29] was 18.7 µM (inactive) and the GI50 [30] was 16.3 µM (inactive). The GI50 [31] was 18.2 µM (inactive), the GI50 [32] was 17.7 µM (inactive) and the GI50 [33] was 22.2 µM (inactive). The GI50 [34] was 15.8 µM (inactive), the GI50 [35] was 23.3 µM (inactive) and the GI50 [36] was 14.1 µM (inactive). The GI50 [37] was 19.7 µM (inactive), the GI50 [38] was 17.1 µM (inactive) and the GI50 [39] was 18.8 µM (inactive). The GI50 [40] was 15.9 µM (inactive), the GI50 [41] was 8.04 µM (inactive) and the GI50 [42] was 19.7 µM (inactive). For the same compound, the GI50 [43] was 22.2 µM (inactive), the GI50 [44] was 16.3 µM (inactive) and the GI50 [45] was 17.8 µM (inactive). The GI50 [46] was 21.7 µM (inactive), the GI50 [47] was 18.9 µM (inactive) and the GI50 [48] was 3.4 µM (inactive). For the same compound, the GI50 [49] was 16.6 µM (inactive), the GI50 [50] was 9.53 µM (inactive) and the GI50 [51] was 13.5 µM. For the same compound, the GI50 [52] was 14.3 µM (inactive), the GI50 [53] was 15.7 µM (inactive) and the GI50 [54] was 19.2 µM (inactive).

With `O=C(c1ccccc1)c1nnn(Cc2cccc(Cl)c2)c1C(=O)c1ccccc1` the GI50 [1] was > 100 µM (inactive), the GI50 [2] was > 100 µM (inactive) and the GI50 [3] was > 100 µM (inactive). The GI50 [4] was > 100 µM (inactive), the GI50 [5] was > 100 µM (inactive) and the GI50 [6] was > 100 µM (inactive). The GI50 [7] was 97.5 µM (inactive), the GI50 [8] was > 100 µM (inactive) and the GI50 [9] was > 100 µM (inactive). The GI50 [10] was > 100 µM (inactive), the GI50 [11] was > 100 µM (inactive) and the GI50 [12] was > 100 µM (inactive). The GI50 [13] was 98.2 µM (inactive), the GI50 [14] was > 100 µM (inactive) and the GI50 [15] was > 100 µM (inactive). For the same compound, the GI50 [16] was > 100 µM (inactive), the GI50 [17] was > 100 µM (inactive) and the GI50 [18] was > 100 µM (inactive). The GI50 [19] was > 100 µM (inactive), the GI50 [20] was 15 µM (inactive) and the GI50 [21] was > 100 µM (inactive). The GI50 [22] was > 100 µM (inactive), the GI50 [24] was 44 µM (inactive) and the GI50 [25] was > 100 µM (inactive). For the same compound, the GI50 [26] was > 100 µM (inactive), the GI50 [55] was > 100 µM (inactive) and the GI50 [56] was > 100 µM (inactive). For the same compound, the GI50 [27] was 88.3 µM (inactive), the GI50 [28] was > 100 µM (inactive) and the GI50 [29] was > 100 µM (inactive). For the same compound, the GI50 [30] was > 100 µM (inactive), the GI50 [31] was 78 µM (inactive) and the GI50 [32] was > 100 µM (inactive). The GI50 [33] was > 100 µM (inactive), the GI50 [34] was > 100 µM (inactive) and the GI50 [36] was > 100 µM (inactive). The GI50 [37] was > 100 µM (inactive), the GI50 [38] was > 100 µM (inactive) and the GI50 [40] was 44.8 µM (inactive). For the same compound, the GI50 [41] was > 100 µM (inactive), the GI50 [42] was > 100 µM (inactive) and the GI50 [43] was 8.17 µM (inactive). For the same compound, the GI50 [57] was > 100 µM (inactive), the GI50 [44] was > 100 µM (inactive) and the GI50 [45] was > 100 µM (inactive). The GI50 [46] was 25.2 µM (inactive), the GI50 [47] was > 100 µM (inactive) and the GI50 [48] was > 100 µM (inactive). For the same compound, the GI50 [49] was > 100 µM (inactive), the GI50 [50] was > 100 µM (inactive) and the GI50 [51] was > 100 µM. The GI50 [52] was > 100 µM (inactive), the GI50 [53] was > 100 µM (inactive) and the GI50 [58] was > 100 µM (inactive). The GI50 [54] was 34.8 µM (inactive).
